Measured values: patent publication US7521239B2, “Photochemical internalization for virus-mediated molecule delivery into the cyosol” (priority 2000, dated 2009)

What was measured:
[1] = test system: HCT 116 adenocarcinoma cells; test: MTT cell survival after PCI-induced transduction with AdV-TK and ganciclovir; format: cell-based, human
Method: HCT 116 adenocarcinoma cells were infected with an adenovirus gene therapy vector encoding the HSV-tk gene (AdV-TK) and subjected to PCI-treatment. Conditions for infection were as described under “Experimental protocols” (MOI=5). 2 days after infection, different concentrations of ganciclovir (GCV) was added, and the cells were incubated further for 3 days before analysis of cell survival by the MTT method. This method is based on reduction of a water-soluble tetrazolium salt (MTT) to a purple, insoluble formazan product by mitochondrial dehydrogenases present in living, metabolically active cells. One ml medium containing […] is added to the cells, followed by 4 h incubation (37° C., 5% v/v CO2). The resulting formazan crystals are dissolved by adding 200 μl isopropanol (Sigma, Mo., USA) per well. The solution is transferred to a 96 wells plate which is read by a Multiskan EX microplate reader (Labsystems, Finland) with a 570 nm bandpass filter.

HCT 116 cells = test: Flow cytometry of β-galactosidase transduction in HCT 116 cells (AlPcS2a, red light); format: cell-based, human
Method: (§1) HCT 116 and WiDr human colon carcinoma cells were obtained from American Type Culture Collection (ATCC nos. CCL-247 and CCL-218, respectively). Cells were cultured in RPMI 1640 medium containing 10% fetal calf serum, 100 U/ml penicillin, […] and 2 mM glutamine (all Gibco BRL, Paisley, UK) at 37° C. in 5% CO2 atmosphere.
(§2) The recombinant adenovirus AdHCMV-lacZ encoding the E. coli lacZ gene controlled by the human cytomegalovirus promoter was obtained by homologous recombination using the pJM17 system in 293 cells (Addison et al., 1997, J. Gen. Virol. 78: 1653-61). Recombinant vectors were plaque purified, grown to high titer in 293 cells and purified by CsCl banding (Hitt et al., 1995, Methods Mol. Genet. 7:13-30). The virus-solution was diluted in PBS containing 0.68 mM CaCl2 and 0.5 mM MgCl2 to the MOIs employed in the different experiments. […]
(§3) The cells were trypsinised, centrifuged, resuspended in 25 ml medium and incubated for 5 min at 37° C. […] The samples were kept on ice for 30-60 min, filtered through a […] mesh nylon filter and analyzed in a FACS-Calibur flow cytometer (Becton Dickinson). […] Fluorescein-fluorescence was measured through a 510-530 nm filter after excitation with an argon laser (15 mW, 488 nm). […] The data were analyzed with the CELLQuest Software (Becton Dickinson).

[2] = test system: human WiDr adenocarcinoma cells; test: X-gal staining of photochemically transduced WiDr cells; format: cell-based; settings: AlPcS2a and light, no adenovirus
Method: 50 000 cells per well were seeded in 6-well plates (Costar,) and incubated overnight at 37° C. 1 ml medium containing […] AlPcS2a (Phorphyrin Products, Logan, Utah) was added, the cells were incubated for 18 h at 37° C., washed three times with medium and incubated for another 3 h at 37° C. The medium was removed and 200 μl of AdHCMV-lacZ was added. After incubation for 30 min at 37° C., 2 ml medium was added and the cells were incubated for 30 min before exposure to red light (Phillips TL 20 W/09, filtered through a Cinemoid 35 filter, with a light intensity reaching the cells of 13.5 W/m2). Before analysis of β-galactosidase activity the cells were incubated at 37° C. for two days.
For X-gal (5-bromo-4 chloro 3 indolyl-β-D-galactopyranoside) staining the medium was discarded, 1 ml of fixative solution (0,05% glutaraldehyde in PBS) was added and the cells were incubated at room temperature for 15 min. The fixative solution was discarded and the cells were washed three times in PBS at room temperature (second rinse was for 10 min, first and third rinses were performed quickly). 1 ml X-gal solution (5 mM K3Fe(CN)6, 5 mM K4Fe(CN)6, 1 mM MgCl2, 1 mg/ml X-gal) was added and the cells were incubated for 4 h to overnight at 37° C. and observed by microscopy (100× magnification) using an Axiovert S100 microscope (Zeiss) with an MC100 Spot camera (Zeiss).

WiDr cells = test: Flow cytometry of β-galactosidase transduction in WiDr cells (AlPcS2a, red light); format: cell-based, human; settings: photochemical treatment alone (Ad−, S+)
Method: as §1, §2, §3

Row | Compound | GCV-mediated cell killing (cell survival, MTT) ([1]; control: photosensitizer + GCV, no AdV-TK) | percentage of β-galactosidase positive cells (HCT 116 cells; Ad−, S+, 8 min light) | mean fluorescence in non-infected cells (HCT 116 cells; photochemical treatment (AlPcS2a + light), no adenovirus) | β-galactosidase expressing cells (X-gal staining, microscopy) [2] | change in percentage of positive cells (WiDr cells) | GCV-mediated cell killing (cell survival, MTT) ([1]; control: only photosensitizer treatment)
1 | Nc1nc(O)c2ncn(COC(CO)CO)c2n1 [GCV, ganciclovir] | no such effect | – | – | – | – | –
2 | aluminum phthalocyanine with 2 sulfonate groups on adjacent rings [AlPcS2a] | – | 0.4% | 12 RFU | No positive cells | did not significantly change | no such effect
